In US10111885B2, “Compositions and therapeutic methods for the treatment of complement-associated diseases” (Resverlogix Corp., priority 2015, dated 2018):
Read-outs that look alike come from different tables or passages of the source.

B1: Recombinant human C1INH: recombinant human C1 esterase inhibitor (protein, UniProt P05155 23-500, looked up)
Plasma protease C1 inhibitor: NPNATSSSSQDPESLQDRGEGKVATTVISKMLFVEPILEVSSLPTTNSTTNSATKITANTTDEPTTQPTTEPTTQPTIQPTQPTTQLPTDSPTQPTTGSFCPGPVTLCSDLESHSTEAVLGDALVDFSLKLYHAFSAMKKVETNMAFSPFSIASLLTQVLLGAGENTKTNLESILSYPKDFTCVHQALKGFTTKGVTSVSQIFHSPDLAIRDTFVNASRTLYSSSPRVLSNNSDANLELINTWVAKNTNNKISRLLDSLPSDTRLVLLNAIYLSAKWKTTFDPKKTRMEPFHFKNSVIKVPMMNSKKYPVAHFIDQTLKAKVGQLQLSHNLSLVILVPQNLKHRLEDMEQALSPSVFKAIMEKLEMSKFQPTLLTLPRIKVTTSQDMLSIMEKLEFFDFSYDLNLCGLTEDPDLQVSAMQHQTVLELTETGVEAAAASAISVARTLLVFEVQQPFLFVLWDQQHKFPVFMGRVYDPRA

Key:
[1] = test system: erythrocyte lysis; conditions: erythrocyte lysis animal model; cited from earlier work
[2] = test system: ex vivo perfused pig xenografts; conditions: porcine-to-human kidney perfusion animal model; cited from earlier work
[3] = test system: C3 mRNA; assay: Complement gene mRNA expression, TaqMan real-time PCR, Huh-7 cells; assay type: cell-based, human; conditions: Homo sapiens
Text: (§1) In this example, mRNA levels from cultured cells were quantitated. The assay can be used to determine the effect of compound(s) on regulating mRNA levels, including those compounds in the present invention. Complement genes are expressed at high endogenous levels, but their expression can also be stimulated with various cytokines in inflammatory conditions. Experiments in this example target both basal and inflammatory complement gene expression. Compound mediated changes in gene expression and resulting mRNA levels are presented in Tables 2, 3 and 4 as well as FIGS. 1, 2, 3 and 4 below.
(§2) Huh-7 and HepG2 cells are liver-derived cell lines and are models for what can occur in the liver. Huh-7 cells (JCRB Cell Bank) were introduced to 96-well plates (^˜2.5×10^5 per well) in 100 μL DMEM containing 10% (v/v) FBS, 100 U/mL penicillin, 100 ug/mL streptomycin and 5 ug/mL plasmocin (all reagents from Gibco, except for the former, which was obtained from Invivogen). After 24 h, Huh-7 cells were treated with compounds in the same media formulation used for plating, and supplemented with 0.1% DMSO for the amount of time indicated in tables 2, 3, and 4. For select experiments, 24 h post-plating, cells were treated with cytokines and the compound of interest simultaneously, for a total treatment time of 48 h. Alternatively, 24 h after plating, cells were pre-treated with cytokines for 24 h before adding the compound of interest for 48 h. HepG2 cells (ATCC) were cultured in 96-well plates (^˜2.5×10^5 per well) in MEM containing 10% FBS, 1× non-essential amino acids, 1 mM sodium pyruvate, 2 mM L-glutamine, 100 U/mL penicillin, 100 ug/mL streptomycin and 5 ug/mL plasmocin. Serum amount was reduced to 0.5% for treatments with compound or cytokines. Timing of treatment of HepG2 cells with compounds and cytokines was as described for Huh-7 cells. Primary human hepatocytes (CellzDirect/Life Technologies) were plated in collagen coated 96-well plates at 70 000 cells/well, then overlaid with Matrigel™ as recommended by the supplier. Cells were treated with compounds of interest and/or cytokines for the indicated time points in the recommended media supplemented with 0.1% DMSO and 10% FBS (v/v). Cells were harvested by mRNA Catcher PLUS Kit (Life Technologies) followed by real-time PCR using the RNA UltraSense One-Step qRT-PCR System. The level of the mRNA of interest was measured by TaqMan real-time PCR relative to the endogenous control cyclophilin A in the same sample. Data were acquired using the ViiA-7 Real Time PCR System (Applied Biosystems).
(§3) Downregulation of expression of components of the complement cascade will result in reduced activity of the pathway and thus will constitute a positive result. Tables 2 and 3 list the concentration of compounds at which the level of the indicated mRNA is reduced by 50%, as well as the duration of treatment with compound. Table 4 lists the maximum reduction in the indicated mRNA measured in primary human hepatocytes treated with compounds for up to 72 hours. FIGS. 1, 2, 3 and 4 show effects of compounds on cytokine-induced (i.e. inflammatory) expression of complement genes in Huh-7 cells and HepG2 cells.

[4] = test system: C4a/C4b mRNA; assay: as above; assay type: cell-based, human; conditions: Homo sapiens
Text: as §1, §2, §3

[5] = test system: C5 mRNA; assay: as above; assay type: cell-based, human; conditions: Homo sapiens; Huh-7, 48 h treatment; read-out: C5 (48 h) mRNA, half maximal inhibitory concentration (IC50)
Text: as §1, §2, §3

[6] = hereditary angioedema; cited from earlier work
[7] = Huh-7, 48 h treatment (Table 3), read-out: mRNA expression in Huh-7 cells: IC50 (uM), C3
[8] = Huh-7, 48 h treatment (Table 3), read-out: mRNA expression in Huh-7 cells: IC50 (uM), C4
[9] = Huh-7, 48 h treatment, read-out: C3 (48 h) mRNA, half maximal inhibitory concentration (IC50)
[10] = Huh-7, 48 h treatment, read-out: C4a/C4b (48 h) mRNA, half maximal inhibitory concentration (IC50)

| Molecule | IC50 [3, 7] [µM] | IC50 [4, 8] [µM] | also measured |
| --- | --- | --- | --- |
| CC[C@H](C)[C@H](N)C(=O)N[C@H]1CSSC[C@@H](C(=O)N[C@H](C(N)=O)[C@@H](C)O)NC(=O)[C@H](CCCN=C(N)N)NC(=O)[C@H](Cc2cnc[nH]2)NC(=O)[C@H](Cc2cnc[nH]2)NC(=O)CNC(=O)[C@H](Cc2c[nH]c3ccccc23)NC(=O)[C@H](CC(=O)O)NC(=O)[C@H](CCC(N)=O)NC(=O)[C@H](C(C)C)NC(=O)[C@H](C(C)C)NC1=O [compstatin] | – | – | reduction of hemolysis [1]: 50%; graft survival [2]: prolonged graft survival |
| COc1cc(OC)c2c(=O)[nH]c(-c3ccc4[nH]c(CN(C)C)cc4c3)nc2c1 [RVX000668] | 9.5 | 15.6 | – |
| COc1cc(OCCN2CCCC2)cc(-c2nc3cc(OC)cc(OC)c3c(=O)[nH]2)c1 [RVX000641] | 12.6 | 9.3 | – |
| COc1cc(OC)c2c(=O)[nH]c(-c3cc(C)c(OCCN4CCC(F)(F)C4)c(C)c3)nc2c1 [RVX000843] | 11.1 | > 50 | – |
| COC(=O)NCCOc1c(C)cc(-c2nc3cc(OC)cc(OC)c3c(=O)[nH]2)cc1C [RVX002113] | 5.8 | 7.8 | – |
| COc1cc(OC)c2c(=O)[nH]c(-c3cc(C)c(OCCNC(C)C)c(C)c3)nc2c1 [RVX002135] | – | – | IC50 [3, 9]: 2.2 µM; IC50 [4, 10]: 4.3 µM; IC50 [5]: 37.9 µM |
| COc1cc(OC)c2c(=O)[nH]c(-c3cc(C)c(OCCNS(C)(=O)=O)c(C)c3)nc2c1 [RVX002093, N-(2-(4-(5,7-dimethoxy-4-oxo-3,4-dihydroquinazolin-2-yl)-2,6-dimethylphenoxy)ethyl)methanesulfonamide] | 18.5 | 17.2 | – |
| COc1cc(OC)c2c(=O)[nH]c(-c3ccc(N4CCN(C)CC4)cc3)nc2c1 [RVX000255, 5,7-dimethoxy-2-(4-(4-methylpiperazin-1-yl)phenyl)quinazolin-4(3H)-one] | 20.4 | 17.4 | – |
| COc1cc(OC)c2c(=O)[nH]c(-c3cc(C)c(OCCNC(=O)C(C)C)c(C)c3)nc2c1 [RVX002103] | 13.9 | 13.8 | – |
| COc1cc(OC)c2c(=O)[nH]c(-c3ccc(N4CCN(C(C)C)CC4)cc3)nc2c1 [RVX002109] | – | – | IC50 [3, 9]: 34.8 µM; IC50 [4, 10]: 62.2 µM; IC50 [5]: > 50 µM |
| COc1cc(OC)c2c(=O)[nH]c(-c3ccc(N4CCNCC4)cc3)nc2c1 [RVX002141] | 15.4 | 17.8 | – |
| COc1cc(OC)c2c(=O)[nH]c(-c3cc(C)c(O)c(C)c3)nc2c1 [RVX000206] | 3.6 | 9.3 | – |
| COc1cc(OC)c2c(=O)[nH]c(-c3cc(C)c(OCC(O)CO)c(C)c3)nc2c1 (stereo not drawn) [RVX000344] | 11.6 | 15.6 | – |
| COc1cc(OC)c2c(=O)[nH]c(-c3cc(C)c(OCCN4CCCC4)c(C)c3)nc2n1 [RVX000662] | 29.2 | 21.1 | – |
| COc1cc(OC)c2c(=O)[nH]c(-c3cc(C)c(OCCN4CCCC4)c(C)c3)nc2c1 [RVX000297] | – | – | IC50 [3, 9]: 4.7 µM; IC50 [4, 10]: 4.5 µM; IC50 [5]: > 10 µM |
| COc1cc(OC)c2c(=O)[nH]c(-c3cc(C)c(OCCNC(C)=O)c(C)c3)nc2c1 [RVX002101] | 11.3 | 22 | – |
| B1 | – | – | symptoms of repeat HAE attacks [6]: effective in improving symptoms |
